From patent US9326973B2, “Hepatitis C virus inhibitors” (priority 2012, dated 2016)

Test system: HCV replicon, genotype-1a variant with glutamine 30 changed to glutamate in the NS5A protein
Assay: microbe, parasite or virus in culture
Type: cell-based, HCV genotype 1a
Conditions: not given
Outline: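 Synergy was assessed by combining several fixed amounts of an NS5A-targeting compound with a titration of the second compound of interest.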

Row | Structure (SMILES) | reciprocal synergistic inhibitory effect for the combination [fold]
1 | COC(=O)N[C@H](C(=O)N1CCC[C@H]1c1nc(-c2ccc(-c3ccc(-c4c[nH]c([C@@H]5CCCN5C(=O)[C@@H](NC(=O)OC)C(C)C)n4)cc3)cc2)c[nH]1)C(C)C [BMS-790052, reference compound] | ~100

Same assay, conditions: HCV replicon genotype 1a Q30E (Q→E) variant; test compound titrated with an NS5A-targeting compound (BMS-790052 fixed at 200 nM); ranking of synergist activity

Row | Structure (SMILES) | Fold-Synergistic 1a (Q30E) [fold]
2 | CC(C)(C)[C@H](NC(=O)C1CCC(=O)CC1)c1nc(-c2ccc(-c3ccc(-c4c[nH]c([C@@H](NC(=O)C5CCC(=O)CC5)C(C)(C)C)n4)cc3)cc2)c[nH]1 [Compound W-173] | >100
3 | CC(C)(C)[C@H](NC(=O)C(=O)N1CC(F)(F)C1)c1nc(-c2ccc(-c3ccc(-c4c[nH]c([C@@H](NC(=O)C(=O)N5CC(F)(F)C5)C(C)(C)C)n4)cc3)cc2)c[nH]1 [Compound W-28] | >100
4 | CC(C)(C)[C@H](NC(=O)C1(N2CCOC2=O)CC1)c1nc(-c2ccc(-c3ccc(-c4c[nH]c([C@@H](NC(=O)C5(N6CCOC6=O)CC5)C(C)(C)C)n4)cc3)cc2)c[nH]1 [Compound L-26] | >100
5 | CC(C)(C)[C@H](NC(=O)C1(CO)CCCCO1)c1nc(-c2ccc(-c3ccc(-c4c[nH]c([C@@H](NC(=O)C5(CO)CCCCO5)C(C)(C)C)n4)cc3)cc2)c[nH]1 (stereo partly drawn) [Compound P-177] | >100
6 | COC(=O)N[C@@H](C(=O)N[C@H](c1nc(-c2ccc3cc(-c4ccc(-c5cnc([C@@H](NC(=O)[C@H](NC(=O)OC)C(C)C)C(C)(C)C)[nH]5)cc4)ccc3c2)c[nH]1)C(C)(C)C)C(C)C [Compound N-8] | >10
7 | N#CCC(=O)N1CCC[C@H]1c1ncc(-c2ccc(-c3ccc(-c4cnc([C@@H]5CCCN5C(=O)CC#N)[nH]4)cc3)cc2)[nH]1 [Compound S-171] | <10
8 | CC(C)[C@H](NC(=O)C(C)(C)C)c1nc(-c2ccc(-c3ccc(-c4c[nH]c([C@@H](NC(=O)C(C)(C)C)C(C)C)n4)cc3F)cc2)c[nH]1 [Compound N-100] | >100
9 | CN(C)C(=O)C(C)(C)C(=O)N[C@H](c1nc(-c2ccc(-c3ccc(-c4c[nH]c([C@@H](NC(=O)C(C)(C)C(=O)N(C)C)C(C)(C)C)n4)cc3)cc2)c[nH]1)C(C)(C)C [Compound W-138] | >100
10 | CC(C)[C@H](NC(=O)[C@@H]1C[C@@H](O)CN1C(=O)OC(C)(C)C)c1nc(-c2ccc(-c3ccc(-c4c[nH]c([C@@H](NC(=O)[C@@H]5C[C@@H](O)CN5C(=O)OC(C)(C)C)C(C)C)n4)cc3)cc2)c[nH]1 [Compound W-97] | >100
11 | CCCCC(=O)N1CCC[C@H]1c1ncc(-c2ccc(-c3ccc(-c4cnc([C@@H]5CCCN5C(=O)CCCC)[nH]4)cc3)cc2)[nH]1 [Compound S-180] | <10
12 | O=C(N1CCC[C@H]1c1ncc(-c2ccc(-c3ccc(-c4cnc([C@@H]5CCCN5C(=O)C5(c6ccccc6)CC5)[nH]4)cc3)cc2)[nH]1)C1(c2ccccc2)CC1 [Compound S-159] | <10
13 | CC(C)[C@H](NC(=O)C1(C)CCCCC1)c1nc(-c2ccc3c(c2)Cc2cc(-c4c[nH]c([C@@H](NC(=O)C5(C)CCCCC5)C(C)C)n4)ccc2-3)c[nH]1 [Compound N-69] | >100
14 | CC(C)(C)[C@H](NC(=O)C(=O)N1CC[C@H](F)C1)c1nc(-c2ccc(-c3ccc(-c4c[nH]c([C@@H](NC(=O)C(=O)N5CC[C@H](F)C5)C(C)(C)C)n4)cc3)cc2)c[nH]1 [Compound W-27] | >100
15 | O=C(Cc1ccc(-c2ccccc2)cc1)N1CCC[C@H]1c1ncc(-c2ccc(-c3ccc(-c4cnc([C@@H]5CCCN5C(=O)Cc5ccc(-c6ccccc6)cc5)[nH]4)cc3)cc2)[nH]1 [Compound S-147] | <10
16 | CC(C)(C)[C@H](NC(=O)[C@@]12CC[C@@](C)(C(=O)O1)C2(C)C)c1nc(-c2ccc(-c3ccc(-c4c[nH]c([C@@H](NC(=O)[C@@]56CC[C@@](C)(C(=O)O5)C6(C)C)C(C)(C)C)n4)cc3)cc2)c[nH]1 [Compound P-170] | >100
17 | O=C(c1csc(-c2cccnc2)n1)N1CCC[C@H]1c1ncc(-c2ccc(-c3ccc(-c4cnc([C@@H]5CCCN5C(=O)c5csc(-c6cccnc6)n5)[nH]4)cc3)cc2)[nH]1 [Compound S-130] | >10
18 | O=C(CC(c1ccccc1)c1ccccc1)N1CCC[C@H]1c1ncc(-c2ccc(-c3ccc(-c4cnc([C@@H]5CCCN5C(=O)CC(c5ccccc5)c5ccccc5)[nH]4)cc3)cc2)[nH]1 [Compound S-143] | >10
19 | CC(C)(C)CC(=O)N1CCC[C@H]1c1ncc(-c2ccc(-c3ccc(-c4cnc([C@@H]5CCCN5C(=O)CC(C)(C)C)[nH]4)cc3)cc2)[nH]1 [Compound S-197] | <10
20 | CC(C)(C)[C@H](NC(=O)C1(CO)CCCCO1)c1nc(-c2ccc(-c3ccc(-c4c[nH]c([C@@H](NC(=O)C5(CO)CCCCO5)C(C)(C)C)n4)cc3)cc2)c[nH]1 (stereo partly drawn) [Compound P-181] | >100
21 | O=C(c1cnc2ccccc2c1)N1CCC[C@H]1c1ncc(-c2ccc(-c3ccc(-c4cnc([C@@H]5CCCN5C(=O)c5cnc6ccccc6c5)[nH]4)cc3)cc2)[nH]1 [Compound S-124] | >10

Row | Structure (SMILES) | Fold-Synergistic 1a (Q30E) [fold]
22 | CO[C@@H](C(=O)N[C@H](c1nc(-c2ccc(-c3ccc(-c4c[nH]c([C@@H](NC(=O)[C@H](OC)C(C)C)C(C)(C)C)n4)cc3)cc2)c[nH]1)C(C)(C)C)C(C)C [Compound L-86] | >100
23 | CC(C)(C)[C@H](NC(=O)C(F)(F)Sc1ccccc1)c1nc(-c2ccc(-c3ccc(-c4c[nH]c([C@@H](NC(=O)C(F)(F)Sc5ccccc5)C(C)(C)C)n4)cc3)cc2)c[nH]1 [Compound P-172] | >100
24 | CC1(C)CCCC(C)(C(=O)N[C@H](c2nc(-c3ccc(-c4ccc(-c5c[nH]c([C@@H](NC(=O)C6(C)CCCC(C)(C)O6)C(C)(C)C)n5)cc4)cc3)c[nH]2)C(C)(C)C)O1 (stereo partly drawn) [Compound W-168] | >10
25 | CC(C)(C)OC(=O)C[C@H](C(=O)N[C@H](c1nc(-c2ccc(-c3ccc(-c4c[nH]c([C@@H](NC(=O)[C@@H](CC(=O)OC(C)(C)C)C5CCCC5)C(C)(C)C)n4)cc3)cc2)c[nH]1)C(C)(C)C)C1CCCC1 [Compound S-272] | >100
26 | O=C(Cc1ccccc1F)N1CCC[C@H]1c1ncc(-c2ccc(-c3ccc(-c4cnc([C@@H]5CCCN5C(=O)Cc5ccccc5F)[nH]4)cc3)cc2)[nH]1 [Compound S-178] | <10
27 | COC(=O)C1(C(=O)N[C@H](c2nc(-c3ccc(-c4ccc(-c5c[nH]c([C@@H](NC(=O)C6(C(=O)OC)CCCCC6)C(C)(C)C)n5)cc4)cc3)c[nH]2)C(C)(C)C)CCCCC1 [Compound S-273] | >100
28 | CCCC(C)(C)C(=O)N[C@H](c1nc(-c2ccc(-c3ccc(-c4c[nH]c([C@@H](NC(=O)C(C)(C)CCC)C(C)(C)C)n4)cc3)cc2)c[nH]1)C(C)(C)C [Compound S-281] | >100
29 | Cc1cc(-c2ccc(-c3c[nH]c([C@@H](NC(=O)C4(C)CCC(F)(F)CC4)C(C)C)n3)cc2)ccc1-c1c[nH]c([C@@H](NC(=O)C2(C)CCC(F)(F)CC2)C(C)C)n1 [Compound N-84] | >100
30 | CC(C)(C)[C@H](NC(=O)C(F)(F)C1(O)CCCC1)c1nc(-c2ccc(-c3ccc(-c4c[nH]c([C@@H](NC(=O)C(F)(F)C5(O)CCCC5)C(C)(C)C)n4)cc3)cc2)c[nH]1 [Compound P-164] | >100
31 | COC(C)(C)C(=O)N[C@H](c1nc(-c2ccc(-c3ccc(-c4c[nH]c([C@@H](NC(=O)C(C)(C)OC)C(C)C)n4)c(F)c3)cc2)c[nH]1)C(C)C [Compound N-87] | >100
32 | O=C(Cc1ccc(Oc2ccccc2)cc1)N1CCC[C@H]1c1ncc(-c2ccc(-c3ccc(-c4cnc([C@@H]5CCCN5C(=O)Cc5ccc(Oc6ccccc6)cc5)[nH]4)cc3)cc2)[nH]1 [Compound S-154] | >10
33 | CCCC(C)C(=O)N1CCC[C@H]1c1ncc(-c2ccc(-c3ccc(-c4cnc([C@@H]5CCCN5C(=O)C(C)CCC)[nH]4)cc3)cc2)[nH]1 (stereo partly drawn) [Compound S-170] | <10
34 | O=C(N1CCC[C@H]1c1ncc(-c2ccc(-c3ccc(-c4cnc([C@@H]5CCCN5C(=O)C5(c6ccc(F)cc6Cl)CCCC5)[nH]4)cc3)cc2)[nH]1)C1(c2ccc(F)cc2Cl)CCCC1 [Compound S-156] | <10
35 | CCOC(=O)C(C)(C)C(=O)N[C@H](c1nc(-c2ccc(-c3ccc(-c4c[nH]c([C@@H](NC(=O)C(C)(C)C(=O)OCC)C(C)(C)C)n4)cc3)cc2)c[nH]1)C(C)(C)C [Compound W-126] | >100
36 | CC1(C(=O)N[C@H](c2nc(-c3ccc(-c4ccc(-c5c[nH]c([C@@H](NC(=O)C6(C)COC(c7ccccc7)OC6)C(C)(C)C)n5)cc4)cc3)c[nH]2)C(C)(C)C)COC(c2ccccc2)OC1 (stereo partly drawn) [Compound S-280] | >100
37 | CC(C)(C)C(=O)N1CCC[C@H]1c1ncc(-c2ccc(-c3ccc(-c4cnc([C@@H]5CCCN5C(=O)C(C)(C)C)[nH]4)cc3)cc2)[nH]1 [Compound S-177] | <10
38 | CC(C)OC(=O)N1C[C@H](F)C[C@H]1C(=O)N[C@H](c1nc(-c2ccc(-c3ccc(-c4c[nH]c([C@@H](NC(=O)[C@@H]5C[C@@H](F)CN5C(=O)OC(C)C)C(C)(C)C)n4)cc3)cc2)c[nH]1)C(C)(C)C [Compound W-107] | >100
39 | CC(C)(C)[C@H](NC(=O)C1(NCC(F)(F)F)CC1)c1nc(-c2ccc(-c3ccc(-c4c[nH]c([C@@H](NC(=O)C5(NCC(F)(F)F)CC5)C(C)(C)C)n4)cc3)cc2)c[nH]1 [Compound L-96] | >100
40 | O=C(c1cc2ccccc2[nH]1)N1CCC[C@H]1c1ncc(-c2ccc(-c3ccc(-c4cnc([C@@H]5CCCN5C(=O)c5cc6ccccc6[nH]5)[nH]4)cc3)cc2)[nH]1 [Compound S-120] | <10

Same assay, conditions: Hepatitis C virus; genotype 1a Q30E replicon; P-55 fixed at 200 nM; read-out: EC50 of BMS-790052 in the presence of a fixed amount of P-55

Row | Structure (SMILES) | EC50 [nM]
41 | COC(=O)N[C@H](C(=O)N1CCC[C@H]1c1nc(-c2ccc(-c3ccc(-c4c[nH]c([C@@H]5CCCN5C(=O)[C@@H](NC(=O)OC)C(C)C)n4)cc3)cc2)c[nH]1)C(C)C [BMS-790052, reference compound] | ~2

Same assay, conditions: Hepatitis C virus; genotype 1a Q30E replicon; compound alone; read-out: EC50, titrated singly

Row | Structure (SMILES) | EC50 [nM]
42 | COC(=O)N[C@H](C(=O)N1CCC[C@H]1c1nc(-c2ccc(-c3ccc(-c4c[nH]c([C@@H]5CCCN5C(=O)[C@@H](NC(=O)OC)C(C)C)n4)cc3)cc2)c[nH]1)C(C)C [BMS-790052, reference compound] | ~200
